PMC8881610 (Nature Communications, 2022)

Experiments:
[1] = molecular target: T1, GIPR (Homo sapiens, UniProt P48546, Q285A); test: Whole-cell binding assay, competition with 125I-GIP1-42; parameters: acylated tirzepatide to the full-length or modified; Flag; expressed in transfected cells; conditions: GIPR Q285A, CHO-K1
T1 sequence (P48546 22-466 Q285A): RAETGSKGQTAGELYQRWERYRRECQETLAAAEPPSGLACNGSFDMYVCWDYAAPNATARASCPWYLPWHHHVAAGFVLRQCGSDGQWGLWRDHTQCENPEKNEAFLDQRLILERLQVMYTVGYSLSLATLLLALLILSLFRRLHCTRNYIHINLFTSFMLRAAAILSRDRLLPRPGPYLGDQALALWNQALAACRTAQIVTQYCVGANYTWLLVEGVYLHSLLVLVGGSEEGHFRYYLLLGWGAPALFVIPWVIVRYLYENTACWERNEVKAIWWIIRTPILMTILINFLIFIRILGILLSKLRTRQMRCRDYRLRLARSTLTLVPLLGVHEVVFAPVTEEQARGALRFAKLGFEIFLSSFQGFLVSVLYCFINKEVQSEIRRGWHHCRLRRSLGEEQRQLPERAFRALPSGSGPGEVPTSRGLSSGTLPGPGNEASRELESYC
Outline: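 Transiently transfected CHO-K1 cells expressing WT or mutant GIPR were washed in F-12 with 0.1% BSA or 0.1% casein and 33 mM HEPES, then incubated 2 h at 37 °C. After ice-cold PBS washes, cells were lysed and bound radioactivity counted (CPM).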

[2] = molecular target: T2, GLP-1R (Homo sapiens, UniProt P43220, R299A); test: Whole-cell binding assay, competition with 125I-GLP-1(7-36)NH2; conditions: GLP-1R R299A; CHO-K1
T2 construct: Flag; expressed in transfected cells
Protocol: (§1) Human embryonic kidney 293 cells containing SV40 large T-antigen (HEK293T) were cultured in DMEM (Gibco) supplemented with 10% (v/v) fetal bovine serum (FBS, Gibco), 1 mM sodium pyruvate (Gibco) and 100 units/mL penicillin and 100 μg/mL streptomycin at 37 °C in 5% CO2. Chinese hamster ovary (CHO-K1) cells were cultured in F-12 (Gibco) containing 10% FBS, 100 units/mL penicillin and 100 μg/mL streptomycin at 37 °C in 5% CO2. For cAMP and receptor expression assays, HEK293T cells were seeded into 6-well cell culture plates at a density of 7 × 10^5 cells per well. After overnight incubation, cells were transfected with GIPR, GLP-1R or GCGR construct using Lipofectamine 2000 or Lipofectamine 3000 transfection reagent (Invitrogen). For whole-cell binding assay, CHO-K1 cells were seeded into 96-well fibronectin-treated cell culture plates at a density of 3 × 10^4 cells per well. […] Following 24 h culturing, the transfected cells were ready for use.
(§2) For GLP-1R and GCGR, CHO-K1 cells (30,000 cells/well) were seeded into Isoplate-96 plates and incubated for 24 h at 37 °C in 5% CO2. […] After addition of scintillation cocktail (PerkinElmer), radioactivity (CPM) was counted on a MicroBeta^2 microplate counter (PerkinElmer). Data were normalized to the WT response and analyzed using three-parameter logistic equation.

[3] = molecular target: T3, GLP-1R (Homo sapiens, UniProt P43220, Y152A); test: as above; conditions: GLP-1R Y152A; CHO-K1
T3 construct: Flag; expressed in transfected cells
Protocol: as §1, §2

[4] = molecular target: T4, GIPR (Homo sapiens, UniProt P48546, Y145A); test: Whole-cell binding assay, competition with 125I-GIP1-42; conditions: GIPR Y145A; CHO-K1
T4 construct: acylated tirzepatide to the full-length or modified; Flag; expressed in transfected cells
Protocol: as §1
For GIPR, CHO-K1 cells were cultured in F-12 medium with 10% FBS and seeded at a density of 30,000 cells/well in Isoplate-96 plates (PerkinElmer). […] Fifty µL of scintillation cocktail (OptiPhase SuperMix, PerkinElmer) were added and the plates were subsequently counted for radioactivity (counts per minute, CPM) in a MicroBeta^2 microplate counter (PerkinElmer).

[5] = molecular target: T5, GLP-1R (Homo sapiens, UniProt P43220, R190A); test: cAMP accumulation assay, GLP-1R WT, mutant or modified constructs; type: cell-based; conditions: HEK-293T, GLP-1R R190A; HEK293T
T5 construct: Flag; expressed in transfected cells; host or cells: HEK293T
Protocol: (§3) Human embryonic kidney 293 cells containing SV40 large T-antigen (HEK293T) were cultured in DMEM (Gibco) supplemented with 10% (v/v) fetal bovine serum (FBS, Gibco), 1 mM sodium pyruvate (Gibco) and 100 units/mL penicillin and 100 μg/mL streptomycin at 37 °C in 5% CO2. Chinese hamster ovary (CHO-K1) cells were cultured in F-12 (Gibco) containing 10% FBS, 100 units/mL penicillin and 100 μg/mL streptomycin at 37 °C in 5% CO2. For cAMP and receptor expression assays, HEK293T cells were seeded into 6-well cell culture plates at a density of 7 × 10^5 cells per well. After overnight incubation, cells were transfected with GIPR, GLP-1R or GCGR construct using Lipofectamine 2000 or Lipofectamine 3000 transfection reagent (Invitrogen). For whole-cell binding assay, CHO-K1 cells were seeded into 96-well fibronectin-treated cell culture plates at a density of 3 × 10^4 cells per well. After overnight incubation, cells were transfected with GIPR, GLP-1R or GCGR construct using Lipofectamine 2000 transfection reagent (Invitrogen). Following 24 h culturing, the transfected cells were ready for use. […]
(§4) For GIPR, GLP-1R and GCGR, multi-targeting agonist stimulated cAMP accumulation was measured by a LANCE Ultra cAMP kit (PerkinElmer). […] Plates were incubated at RT for 1 h and the fluorescence intensity measured at 620 nm and […] by an EnVision multilabel plate reader (PerkinElmer).

[6] = molecular target: T6, GLP-1R (Homo sapiens, UniProt P43220, K197A); test: as above; type: cell-based; conditions: HEK-293T, GLP-1R K197A; HEK293T
T6 construct: Flag; expressed in transfected cells; host or cells: HEK293T
Protocol: as §3, §4

T4 sequence (P48546 22-466 Y145A): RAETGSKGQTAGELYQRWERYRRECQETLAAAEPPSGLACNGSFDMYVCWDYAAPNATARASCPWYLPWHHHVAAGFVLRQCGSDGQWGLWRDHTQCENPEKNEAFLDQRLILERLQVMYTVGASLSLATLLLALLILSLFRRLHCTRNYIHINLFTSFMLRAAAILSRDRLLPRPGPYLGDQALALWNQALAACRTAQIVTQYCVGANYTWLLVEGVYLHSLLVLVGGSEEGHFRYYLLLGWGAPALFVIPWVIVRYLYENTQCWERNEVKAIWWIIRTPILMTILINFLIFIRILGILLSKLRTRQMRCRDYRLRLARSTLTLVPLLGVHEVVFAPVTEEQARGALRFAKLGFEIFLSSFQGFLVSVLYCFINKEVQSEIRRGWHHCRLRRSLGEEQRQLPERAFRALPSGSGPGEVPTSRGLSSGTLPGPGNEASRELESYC
T5 sequence (P43220 24-463 R190A): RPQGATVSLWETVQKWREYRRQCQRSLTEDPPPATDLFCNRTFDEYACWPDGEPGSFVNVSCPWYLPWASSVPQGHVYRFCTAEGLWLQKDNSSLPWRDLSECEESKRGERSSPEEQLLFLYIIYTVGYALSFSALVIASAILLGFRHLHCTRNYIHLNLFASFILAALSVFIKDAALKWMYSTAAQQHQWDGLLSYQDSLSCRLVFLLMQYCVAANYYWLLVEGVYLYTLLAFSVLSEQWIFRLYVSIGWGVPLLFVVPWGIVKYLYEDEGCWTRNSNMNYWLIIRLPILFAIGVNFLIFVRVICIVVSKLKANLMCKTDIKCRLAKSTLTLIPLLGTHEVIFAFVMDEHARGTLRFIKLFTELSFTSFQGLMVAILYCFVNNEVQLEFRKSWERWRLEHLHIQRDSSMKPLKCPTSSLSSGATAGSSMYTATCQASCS
T6 sequence (P43220 24-463 K197A): as the sequence (P43220 24-463 R190A) above, with A167R, K174A counted along it
T3 sequence (P43220 24-463 Y152A): as the sequence (P43220 24-463 R190A) above, with Y129A, A167R counted along it
T2 sequence (P43220 24-463 R299A): as the sequence (P43220 24-463 R190A) above, with A167R, R276A counted along it

Row | SMILES | binding Span [1] [% WT] | IC50 ([1]; read-out: binding pIC50 (converted)) [nM] | binding Span [2] [% WT] | binding Span [3] [% WT] | binding pIC50 [4] | Emax [5] [%] | Emax [6] [%]
1 | CCCCCCCCCCCCCCCC(=O)N[C@@H](CCC(=O)NCCCC[C@H](NC(=O)[C@H](CC(=O)O)NC(=O)[C@H](CO)NC(=O)[C@@H](NC(=O)[C@H](Cc1ccccc1)NC(=O)[C@@H](NC(=O)CNC(=O)[C@H](CCC(N)=O)NC(=O)C(C)(C)NC(=O)[C@@H](N)Cc1c[nH]cn1)[C@@H](C)O)[C@@H](C)O)C(=O)N[C@@H](CO)C(=O)N[C@@H](CCCCN)C(=O)N[C@@H](Cc1ccc(O)cc1)C(=O)N[C@@H](CC(C)C)C(=O)N[C@@H](CC(=O)O)C(=O)N[C@@H](CCC(=O)O)C(=O)N[C@@H](CCCNC(=N)N)C(=O)N[C@@H](C)C(=O)N[C@@H](C)C(=O)N[C@@H](CCC(N)=O)C(=O)N[C@@H](CC(=O)O)C(=O)N[C@@H](Cc1ccccc1)C(=O)N[C@H](C(=O)N[C@@H](CCC(N)=O)C(=O)N[C@@H](Cc1c[nH]c2ccccc12)C(=O)N[C@@H](CC(C)C)C(=O)N[C@@H](CC(C)C)C(=O)N[C@@H](CC(=O)O)C(=O)NCC(=O)NCC(=O)N1CCC[C@H]1C(=O)N[C@@H](CO)C(=O)N[C@@H](CO)C(=O)NCC(=O)N[C@@H](C)C(=O)N1CCC[C@H]1C(=O)N1CCC[C@H]1C(=O)N1CCC[C@H]1C(=O)N[C@@H](CO)C(N)=O)C(C)C)C(=O)O [Peptide 20] | 108.98 ± 3.60 | 13.5 | – | – | – | – | –
2 | CC[C@H](C)[C@H](NC(=O)[C@H](CC(C)C)NC(=O)[C@H](Cc1c[nH]c2ccccc12)NC(=O)[C@H](CCC(N)=O)NC(=O)[C@@H](NC(=O)[C@H](Cc1ccccc1)NC(=O)[C@H](C)NC(=O)[C@H](CCCCNC(=O)COCCOCCNC(=O)COCCOCCNC(=O)CC[C@H](NC(=O)CCCCCCCCCCCCCCCCCCC(=O)O)C(=O)O)NC(=O)[C@H](CCC(N)=O)NC(=O)[C@H](C)NC(=O)[C@@H](NC(=O)[C@H](CCCCN)NC(=O)[C@H](CC(=O)O)NC(=O)[C@H](CC(C)C)NC(=O)C(C)(C)NC(=O)[C@@H](NC(=O)[C@H](CO)NC(=O)[C@H](Cc1ccc(O)cc1)NC(=O)[C@H](CC(=O)O)NC(=O)[C@H](CO)NC(=O)[C@@H](NC(=O)[C@H](Cc1ccccc1)NC(=O)[C@@H](NC(=O)CNC(=O)[C@H](CCC(=O)O)NC(=O)C(C)(C)NC(=O)[C@@H](N)Cc1ccc(O)cc1)[C@@H](C)O)[C@@H](C)O)[C@@H](C)CC)[C@@H](C)CC)C(C)C)C(=O)N[C@@H](C)C(=O)NCC(=O)NCC(=O)N1CCC[C@H]1C(=O)N[C@@H](CO)C(=O)N[C@@H](CO)C(=O)NCC(=O)N[C@@H](C)C(=O)N1CCC[C@H]1C(=O)N1CCC[C@H]1C(=O)N1CCC[C@H]1C(=O)N[C@@H](CO)C(N)=O [Tirzepatide] | – | – | 8.59 ± 1.61 | 11.22 ± 2.82 | N.B. | 102 ± 2.41 | 111 ± 2.77
